Test results: US20060263351A1, “Methods and compositions for protection against thrombolysis associated reperfusion injury” (The General Hospital Corporation, priority 2002, published 2006)
“Also recorded” adds a separate entry of the source.

Assays:
[1] = system: MMP-9; test: tPA-induced MMP-9 production in wild-type murine embryonic fibroblasts (MEF-1); assay type: cell-based, mouse; conditions: wild-type MEF-1 cells
[2] = system: MMP-2; test: Gelatin zymography of brain after embolic focal ischemia, MMP-2; assay type: in vivo, rat; conditions: tPA 10 mg/kg, 6 hrs post-ischemia; 12 hrs after embolic focal ischemia; vs saline
Excerpt: (§1) The use of BB-94 provided pharmacologic evidence that MMPs were involved in tPA-induced hemorrhage. The role of tPA in further increasing MMP levels was investigated (Sumii, T, E. H. Lo, Stroke 33:831-836, 2002; Aoki, T., et al., Stroke 33:2711-2717, 2002). At 12 hrs after embolic focal ischemia in rats, gelatin zymograms show an upregulation in MMP-9, as expected (FIG. 2A). […] This is an important point since MMP-9 is already produced in ischemic brain. The relevance of tPA-induced MMP-9 is dependent on how much more is released.

[3] = system: MMP-2; test: Zymography of conditioned media, brain microvessel endothelial cells, MMP-2; assay type: cell-based; conditions: human brain endothelial cells
Method: (§2) Different doses of tPA were added to primary co-cultures of neurons/astrocytes from rat brain, or microvessel endothelial cells from human brain. Cytotoxicity assays of LDH release confirmed that these doses were not toxic, consistent with our previous published experience using tPA in vitro (Wang X, et al., Neurosci Lett 274:79-82, 1999). In addition, these doses are within range of plasma concentrations in patients treated with intravenous tPA (NINDS rt-PA Stroke Study Group, New Engl J Med 333:1581-1587, 1995).

[4] = system: microvessel endothelial cells from human brain; test: Cytotoxicity assay of LDH release, brain endothelial cells; assay type: cell-based; conditions: different doses of tPA
Method: as §2

[5] = system: MMP-9; test: Gelatin zymography of brain after embolic focal ischemia, MMP-9; assay type: in vivo, rat; conditions: tPA 10 mg/kg, 6 hrs post-ischemia; 12 hrs after embolic focal ischemia; vs saline
Excerpt: as §1

[6] = system: primary co-cultures of neurons/astrocytes from rat brain; test: Cytotoxicity assay of LDH release, neuron/astrocyte co-cultures; assay type: cell-based; conditions: different doses of tPA
Method: as §2

[7] = system: MMP-9; test: Zymography of conditioned media, brain microvessel endothelial cells, MMP-9; assay type: cell-based, human
Method: as §2

[8] = system: MMP-9; test: Gelatin zymography of brain after mechanical (filament) transient focal ischemia, MMP-9; assay type: in vivo, rat; conditions: 2 hr transient filament occlusion, reperfused 3, 6, or 24 hrs; tPA 10 mg/kg at onset of reperfusion; vs saline
Method: Similar findings were obtained in mechanical (filament) models of focal ischemia. Rats were subjected to transient occlusions for 2 hrs, then reperfused for 3, 6, or 24 hrs. Saline controls were compared with rats treated with 10 mg/kg of tPA at the onset of reperfusion.

[9] = system: ERK; test: Western blot of phospho-ERK after tPA exposure in vitro; assay type: cell-based; conditions: 40 μg/ml tPA; rat cultures
Excerpt: (§3) The presence of MMP upregulation following activation of various signaling pathways after tPA binds to LRP, was investigated. In this investigation, MAP kinase was examined.

[10] = system: MMP-9; test: Zymography of conditioned media, neuron/astrocyte co-cultures, MMP-9; assay type: cell-based, rat; conditions: 24 hr exposure to tPA
Method: as §2

[11] = system: MMP-9; test: tPA-induced MMP-9 production in LRP knockout murine embryonic fibroblasts (PEA-13); assay type: cell-based, mouse; conditions: LRP knockout PEA-13 cells
[12] = system: p38 MAP kinase; test: Western blot of phospho-p38 after tPA exposure in vitro; assay type: cell-based; conditions: 40 μg/ml tPA; rat cultures
Excerpt: as §3

[13] = system: MMP-9; conditions: rats pre-treated intravenously with U0126 vs saline, 2 hr focal ischemia
Excerpt: In this investigation, rats were pre-treated with either saline or U0126 intravenously, then subjected to 2 hr focal ischemia. U0126 inhibits MEK, which is the upstream kinase that activates ERK.

Compound | MMP-9 production [1] | MMP-2 levels in brain (gelatin zymograms) [2] | dose- and time-dependence of tPA-induced MMP-2 release [3] | cytotoxicity (LDH release) [4] | MMP-9 levels in brain (gelatin zymograms) [5] | cytotoxicity (LDH release) [6] | secretion of MMP-9 ([7]; cerebral microvessel endothelial cells, 24 hr exposure to tPA) | dose- and time-dependence of tPA-induced MMP-9 release ([7]; human brain endothelial cells) | upregulation of MMP-9 in brain (gelatin zymograms) [8] | activation of ERK pathway (phospho-ERK) [9] | secretion of MMP-9 [10] | MMP-9 response [11] | activation of p38 MAP kinase pathway (phospho-p38) [12] | ischemic upregulation of MMP-9 [13]
tPA: tissue plasminogen activator (alteplase), thrombolytic agent | induced MMP-9 production | slightly increased but the difference did not reach statistical significance | clear dose- and time-dependence | not toxic | more than doubled the production of MMP-9; also recorded: doubling of MMP-9 | not toxic | clearly induced secretion of MMP-9; also recorded: increased MMP-9 secretion | clear dose- and time-dependence | clearly amplified the upregulation of MMP-9; also recorded: MMP-9 is amplified | activation of ERK; also recorded: rapidly activated | clearly induced secretion of MMP-9; also recorded: increased MMP-9 secretion | no tPA-induced MMP-9 response; also recorded: no significant response | activation; also recorded: rapidly activated | –
N#CC(=C(/N)Sc1ccccc1N)/C(C#N)=C(\N)Sc1ccccc1N [U0126] | – | – | – | – | – | – | – | – | – | – | – | – | – | can attenuate ischemic upregulation of MMP-9; also recorded: attenuated MMP-9 levels
